This note sets out measurements from patent US20260015350A1, “AZAQUINAZOLINE PAN-KRAS INHIBITORS” (Mirati Therapeutics, Inc., priority 2022, published 2026).

Assay [1] deals with KRas-mediated phosphorylation of ERK in AsPC-1 cells. Briefly: Inhibition of KRas-mediated phosphorylation of ERK (Cisbio HTRF pERK), AsPC-1 cells. The note with it: Homo sapiens, ASPC1, AsPC-1 cells; HTRF pERK. In kind it is cell-based. A digest of the protocol: (§1)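 Signal read by HTRF (d2/Cryptate antibody pair, 2 hr room-temperature incubation on lysate). Cells: 6,000 per well, 3 hr compound exposure. Titration: 10 uM highest, 3-fold, 10 points.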

The subject of assay [2] is KRas-mediated phosphorylation of ERK in MKN1 cells. Briefly: Inhibition of KRas-mediated phosphorylation of ERK (Cisbio HTRF pERK), MKN1 cells. Particulars: Homo sapiens, MKN-1. In kind it is cell-based. Here is the method:
(§2) Inhibition of KRas Phosphorylation of ERK (HTRF) by Exemplary Compounds of Formula (I)
(§3) Cisbio HTRF Advanced PERK Assay Catalog #64AERPEH
(§4) Day 1: Seed 6,000 cells/well-25 μl/well in 384-well white solid bottom plate; RPM1_10% FBS. Incubate overnight at 37° C./5% CO2.
(§5) Incubate for 4 hours at room temperature covered.
(§6) Read HTRF using ClarioStar
(Time-resolved FRET reads energy transfer from a long-lived donor to a nearby acceptor.)

Assay [3] relates to KRas-mediated phosphorylation of ERK in H727 cells. Briefly: Inhibition of KRas-mediated phosphorylation of ERK (Cisbio HTRF pERK), H727 cells. The class given is cell-based. Particulars: Homo sapiens, NCI-H727, H727 cells; HTRF pERK. A digest of the protocol:
as §1

The target in a further assay is T1, KRas^G12V (Homo sapiens, UniProt P01116, G12V).
T1 construct: Biotinylated KRas (corresponding to amino acids 1-169, produced at Accelegan Inc.); biotin (biotinylated); purchased Accelegan Inc
T1 sequence (P01116 1-169 isoform P01116-2 G12V): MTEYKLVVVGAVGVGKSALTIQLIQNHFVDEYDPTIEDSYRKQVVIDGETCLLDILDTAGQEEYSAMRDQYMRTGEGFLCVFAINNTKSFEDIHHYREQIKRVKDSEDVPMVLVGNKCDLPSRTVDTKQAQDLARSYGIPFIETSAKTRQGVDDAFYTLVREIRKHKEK
Briefly: KRas binding assay (TR-FRET tracer displacement), KRas G12V.

Assay [4] has as its system KRas-mediated phosphorylation of ERK in PSN1 cells. Briefly: Inhibition of KRas-mediated phosphorylation of ERK (Cisbio HTRF pERK), PSN1 cells. The note with it: Homo sapiens. In kind it is cell-based. Here is the method:
as §2, §3, §4, §5, §6

A further assay deals with T2, KRas^G12D (Homo sapiens, UniProt P01116, G12D).
T2 construct: Biotinylated KRas (corresponding to amino acids 1-169, produced at Accelegan Inc.); biotin (biotinylated); purchased Accelegan Inc
T2 sequence (P01116 1-169 isoform P01116-2 G12D): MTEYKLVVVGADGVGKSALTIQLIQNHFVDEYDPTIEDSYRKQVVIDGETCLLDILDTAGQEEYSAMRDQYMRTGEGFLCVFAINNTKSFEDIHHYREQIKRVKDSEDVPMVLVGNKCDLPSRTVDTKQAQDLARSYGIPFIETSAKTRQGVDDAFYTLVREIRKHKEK
Briefly: KRas binding assay (TR-FRET tracer displacement), KRas G12D.

Another assay deals with T3, KRas^G12R (Homo sapiens, UniProt P01116, G12R).
T3 construct: Biotinylated KRas (corresponding to amino acids 1-169, produced at Accelegan Inc.); biotin (biotinylated); purchased Accelegan Inc
T3 sequence (P01116 1-169 isoform P01116-2 G12R): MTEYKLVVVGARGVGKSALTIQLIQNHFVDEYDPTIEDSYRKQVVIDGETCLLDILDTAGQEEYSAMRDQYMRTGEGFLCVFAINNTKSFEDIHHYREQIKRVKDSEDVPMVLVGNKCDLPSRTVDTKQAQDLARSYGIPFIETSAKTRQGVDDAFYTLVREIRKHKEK
Briefly: KRas binding assay (TR-FRET tracer displacement), KRas G12R.

As for `CCc1c(F)ccc2cc(O)cc(-c3ncc4c(N5CCCC6(CCNS(=O)(=O)N6)C5)nc(OC[C@@]56CCCN5C[C@H](F)C6)nc4c3F)c12` (stereo partly drawn) [Example 656, 8-(7-(8-ethyl-7-fluoro-3-hydroxynaphthalen-1-yl)-8-fluoro-2-(((2R,7aS)-2-fluorotetrahydro-1H-pyrrolizin-7a(5H)-yl)methoxy)pyrido[4,3-d]pyrimidin-4-yl)-2-thia-1,3,8-triazaspiro[5.5]undecane 2,2-dioxide], the IC50 in assay [1] worked out at 1900 nM; in assay [2] it was 943 nM; in assay [3] it was 2380 nM; on KRas^G12V, 6 nM; in assay [4], 3240 nM; at KRas^G12D it was 5 nM. This compound also returned an IC50 on KRas^G12R of 10 nM.
Turning to `CCc1c(F)ccc2cc(O)cc(-c3ncc4c(N5CCCS(=O)(=O)CC5)nc(OC[C@@]56CCCN5C[C@H](F)C6)nc4c3F)c12` [Example 583, 4-(7-(8-ethyl-7-fluoro-3-hydroxynaphthalen-1-yl)-8-fluoro-2-(((2R,7aS)-2-fluorohexahydro-1H-pyrrolizin-7a-yl)methoxy)pyrido[4,3-d]pyrimidin-4-yl)-1,4-thiazepane 1,1-dioxide], the IC50 is 5380 nM in assay [1]; 312 nM in assay [2]; 2500 nM in assay [3]; 14 nM at KRas^G12V; over 10000 nM in assay [4]; 33 nM on KRas^G12D. This compound also gave a concentration for half-maximal inhibition (IC50) on KRas^G12R of 3 nM.
Take `CCc1c(F)ccc2cc(O)cc(-c3ncc4c(N5C[C@H]6C[C@@H](C5)[C@H](O)[C@H]6O)nc(OC[C@@]56CCCN5C[C@H](F)C6)nc4c3F)c12` (single isomer, unassigned) [Example 569]: the IC50 in assay [1] is 5110 nM; in assay [2] it was 69 nM; in assay [3], 444 nM; on KRas^G12V, under 2 nM; in assay [4], over 10000 nM; at KRas^G12D it was 5 nM. Besides, the IC50 at KRas^G12R is under 2 nM.
On to `CCc1c(F)ccc2cc(O)cc(-c3ncc4c(N5CCCC6(CCS6)C5)nc(OC[C@@]56CCCN5C[C@H](F)C6)nc4c3F)c12` (stereo partly drawn) [Example 838, 5-ethyl-6-fluoro-4-(8-fluoro-2-(((2R,7aS)-2-fluorotetrahydro-1H-pyrrolizin-7a(5H)-yl)methoxy)-4-(1-thia-6-azaspiro[3.5]nonan-6-yl)pyrido[4,3-d]pyrimidin-7-yl)naphthalen-2-ol], for which the IC50 in assay [1] was 508 nM; in assay [2] it was 222 nM; in assay [3], 1030 nM; on KRas^G12V it was 10 nM; in assay [4], over 10000 nM; at KRas^G12D, 16 nM. On KRas^G12R, this compound showed an IC50 of 15 nM.
In the case of `CCc1c(F)ccc2cc(O)cc(-c3ncc4c(N5CCCC6(CCCCO6)C5)nc(OC[C@@]56CCCN5C[C@H](F)C6)nc4c3F)c12` (stereo partly drawn) [Example 594, 5-ethyl-6-fluoro-4-(8-fluoro-2-(((2R,7aS)-2-fluorotetrahydro-1H-pyrrolizin-7a(5H)-yl)methoxy)-4-(1-oxa-8-azaspiro[5.5]undecan-8-yl)pyrido[4,3-d]pyrimidin-7-yl)naphthalen-2-ol], the IC50 was 2810 nM in assay [1]; 2350 nM in assay [2]; 2290 nM in assay [3]; 80 nM at KRas^G12V; over 10000 nM in assay [4]; 91 nM at KRas^G12D. Further, on KRas^G12R, the IC50 came to 53 nM.
In the case of `CCc1c(F)ccc2cc(O)cc(-c3ncc4c(N5CCC(N6C(=O)CCC6=O)C5)nc(OC[C@@]56CCCN5C[C@H](F)C6)nc4c3F)c12` (stereo partly drawn) [Example 615, 1′-(7-(8-ethyl-7-fluoro-3-hydroxynaphthalen-1-yl)-8-fluoro-2-(((2R,7aS)-2-fluorotetrahydro-1H-pyrrolizin-7a(5H)-yl)methoxy)pyrido[4,3-d]pyrimidin-4-yl)-[1,3′-bipyrrolidine]-2,5-dione], the IC50 in assay [1] was 7210 nM; in assay [2], 1530 nM; in assay [3], over 10000 nM; at KRas^G12V it was 222 nM; in assay [4], over 10000 nM; on KRas^G12D, 1990 nM. This compound yielded a half-maximal inhibitory concentration (IC50) on KRas^G12R of 421 nM.

As usually defined, the IC50 is the concentration at which inhibition is half-maximal. A higher IC50 goes with a need for much substance.
